In experiment [1] the target is T1, Serine/threonine-protein kinase Nek11 (Homo sapiens) (UniProt Q8NG66).
T1 sequence (whole entry): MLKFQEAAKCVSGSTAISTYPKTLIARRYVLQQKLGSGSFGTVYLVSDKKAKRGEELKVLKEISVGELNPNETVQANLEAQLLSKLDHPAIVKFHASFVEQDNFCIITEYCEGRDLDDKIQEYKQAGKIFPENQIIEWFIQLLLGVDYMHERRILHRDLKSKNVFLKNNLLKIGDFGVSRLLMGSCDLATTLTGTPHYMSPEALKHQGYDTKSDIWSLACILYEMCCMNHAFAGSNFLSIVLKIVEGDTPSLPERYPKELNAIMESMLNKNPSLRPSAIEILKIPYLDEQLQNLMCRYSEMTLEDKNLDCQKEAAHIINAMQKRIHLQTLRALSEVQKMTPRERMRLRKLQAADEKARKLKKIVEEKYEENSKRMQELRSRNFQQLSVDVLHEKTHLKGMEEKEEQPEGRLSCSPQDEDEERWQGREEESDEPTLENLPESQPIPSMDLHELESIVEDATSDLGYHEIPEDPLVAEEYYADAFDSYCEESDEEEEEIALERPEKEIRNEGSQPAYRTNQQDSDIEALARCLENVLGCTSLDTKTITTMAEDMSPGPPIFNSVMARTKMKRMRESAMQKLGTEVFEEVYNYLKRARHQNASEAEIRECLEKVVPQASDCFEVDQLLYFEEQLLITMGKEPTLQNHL
Description: Selectivity interaction (KinomeScan (DiscoverX)) EUB0000595a NEK11. The conditions noted are these: at 10 µM.

Experiment [2] addresses Sodium-dependent dopamine transporter (Homo sapiens, UniProt Q01959). Put plainly: Selectivity interaction (Eurofins CEREP Diversity Profile (receptors and ion channels)) EUB0000279b SLC6A3. The conditions noted are these: at 10 µM.
Experiment [3] has as its target T2, Dual specificity mitogen-activated protein kinase kinase 5 (Homo sapiens) (UniProt Q13163).
T2 sequence (whole entry): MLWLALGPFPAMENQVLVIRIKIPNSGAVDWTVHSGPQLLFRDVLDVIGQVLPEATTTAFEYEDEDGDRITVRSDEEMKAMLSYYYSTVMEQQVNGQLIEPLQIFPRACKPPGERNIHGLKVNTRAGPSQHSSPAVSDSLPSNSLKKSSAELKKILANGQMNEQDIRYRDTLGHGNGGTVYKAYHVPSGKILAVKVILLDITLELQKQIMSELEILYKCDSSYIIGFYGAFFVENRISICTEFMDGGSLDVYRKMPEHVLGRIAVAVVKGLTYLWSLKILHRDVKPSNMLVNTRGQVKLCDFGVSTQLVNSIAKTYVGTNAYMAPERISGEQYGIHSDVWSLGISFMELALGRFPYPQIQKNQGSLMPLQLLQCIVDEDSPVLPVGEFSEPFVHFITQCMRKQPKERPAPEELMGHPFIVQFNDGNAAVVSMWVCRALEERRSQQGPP
Description: Selectivity interaction (KinomeScan (DiscoverX)) EUB0000607a MAP2K5. The conditions noted are these: at 10 µM.

Experiment [4] addresses T3, Membrane-associated tyrosine- and threonine-specific cdc2-inhibitory kinase (Homo sapiens) (UniProt Q99640).
T3 sequence (whole entry): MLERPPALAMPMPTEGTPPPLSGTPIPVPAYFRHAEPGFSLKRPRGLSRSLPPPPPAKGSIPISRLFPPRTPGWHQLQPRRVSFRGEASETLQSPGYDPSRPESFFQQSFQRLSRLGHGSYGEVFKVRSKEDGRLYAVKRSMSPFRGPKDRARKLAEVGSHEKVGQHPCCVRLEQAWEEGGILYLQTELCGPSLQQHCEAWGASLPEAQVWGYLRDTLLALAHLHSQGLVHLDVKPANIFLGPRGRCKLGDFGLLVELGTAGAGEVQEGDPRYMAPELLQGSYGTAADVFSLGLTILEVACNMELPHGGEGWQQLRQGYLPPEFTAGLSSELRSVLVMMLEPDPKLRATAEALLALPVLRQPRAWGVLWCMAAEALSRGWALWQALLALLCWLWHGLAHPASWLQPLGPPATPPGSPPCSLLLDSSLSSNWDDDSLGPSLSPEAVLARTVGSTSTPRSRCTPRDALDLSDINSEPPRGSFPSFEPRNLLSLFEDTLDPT
Description: Selectivity interaction (Ambit KINOMEscan and KiNATiv profiling in Jurkat cells) EUB0000090b PKMYT1. In kind it is cell-based. The conditions noted are these: at 1 µM.

Experiment [5] concerns the target LIM domain kinase 2 (Homo sapiens) (UniProt P53671). Description: Selectivity interaction (KinomeScan (DiscoverX)) EUB0000229b LIMK2. Particulars: at 10 µM.

Chain of LIM domain kinase 2 (Homo sapiens) (P53671 whole entry, looked up, the tested form may be a part): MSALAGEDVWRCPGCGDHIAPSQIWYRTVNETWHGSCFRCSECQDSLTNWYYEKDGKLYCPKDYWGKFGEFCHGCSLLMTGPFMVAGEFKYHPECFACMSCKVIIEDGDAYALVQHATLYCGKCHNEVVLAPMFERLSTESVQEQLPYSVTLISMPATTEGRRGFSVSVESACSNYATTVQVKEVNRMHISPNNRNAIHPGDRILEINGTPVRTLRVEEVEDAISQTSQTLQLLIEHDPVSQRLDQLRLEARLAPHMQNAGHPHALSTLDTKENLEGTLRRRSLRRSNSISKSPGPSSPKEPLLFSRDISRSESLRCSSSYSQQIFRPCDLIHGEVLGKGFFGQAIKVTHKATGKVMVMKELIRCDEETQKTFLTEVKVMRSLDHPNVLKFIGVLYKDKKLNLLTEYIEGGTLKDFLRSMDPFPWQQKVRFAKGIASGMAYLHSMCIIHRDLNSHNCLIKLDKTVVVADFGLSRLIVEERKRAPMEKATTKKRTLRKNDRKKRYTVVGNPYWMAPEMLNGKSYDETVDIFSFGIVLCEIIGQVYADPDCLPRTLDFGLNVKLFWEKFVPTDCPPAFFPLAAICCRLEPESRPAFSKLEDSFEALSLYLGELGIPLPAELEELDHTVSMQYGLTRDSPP
Chain of Sodium-dependent dopamine transporter (Q01959 whole entry): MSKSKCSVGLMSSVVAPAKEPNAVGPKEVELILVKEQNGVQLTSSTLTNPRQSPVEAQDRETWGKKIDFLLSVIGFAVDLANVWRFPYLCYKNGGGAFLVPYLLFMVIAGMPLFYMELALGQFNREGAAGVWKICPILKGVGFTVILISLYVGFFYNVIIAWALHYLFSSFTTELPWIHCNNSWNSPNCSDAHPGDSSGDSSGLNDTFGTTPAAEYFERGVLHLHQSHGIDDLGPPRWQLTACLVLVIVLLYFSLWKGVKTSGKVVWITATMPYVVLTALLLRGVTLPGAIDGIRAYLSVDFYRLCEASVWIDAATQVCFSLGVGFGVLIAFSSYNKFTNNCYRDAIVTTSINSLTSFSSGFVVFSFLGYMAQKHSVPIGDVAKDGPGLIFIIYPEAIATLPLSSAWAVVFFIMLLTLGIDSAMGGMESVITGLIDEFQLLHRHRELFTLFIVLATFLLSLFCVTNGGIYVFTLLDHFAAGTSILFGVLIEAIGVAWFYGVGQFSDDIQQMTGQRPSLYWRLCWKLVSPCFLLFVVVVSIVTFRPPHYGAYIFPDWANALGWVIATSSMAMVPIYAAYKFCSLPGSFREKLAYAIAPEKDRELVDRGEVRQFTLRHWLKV

As to `COCC(=O)NC/C=C/c1ccc2ncnc(Nc3ccc(Oc4ccc(C)nc4)c(C)c3)c2c1` [CP-724714], in experiment [1], the % of control turned out to be 100%.

Molecule `CC(=O)c1cc(-c2ccccc2OCC2CC2)c2ncccn12` displayed a % of control in experiment [2] of 80%.

Molecule `CNC(=O)Nc1ccc(-c2nc(N3CC4CCC(C3)O4)c3cnn(C4CCC5(CC4)OCCO5)c3n2)cc1` came in with a % of control in experiment [3] of 93%.

The molecule `CN(C)C/C=C/C(=O)Nc1ccc(C(=O)N2CCCC(Nc3ncc(Cl)c(-c4c[nH]c5ccccc45)n3)C2)cc1` (stereo not given) displayed a % of control in experiment [4] of 93%.

As to `COc1cc(N(C)c2ccnc3ccc(C(F)(F)F)cc23)cc(OC)c1OC`, the % binding in experiment [5] came out at 93%.

(Values after ChEMBL document CHEMBL5465560, “Selectivity Literature for EUbOPEN Chemogenomic Library” (2024).)
